According to patent publication US12116388B2, “Amylin receptor agonists” (Novo Nordisk A/S, priority 2022, dated 2024):
Starred links: 1 amine or outer side, 2 acyl side, 3 side chain; linkers in the order of their positions; H or OH if unused. Residues, ends and D or L forms follow the SMILES beside them. Groups on a side chain read outwards from the residue. *: point of attachment. C20 diacid = O=C(O)CCCCCCCCCCCCCCCCCCC(=O)*; C18 diacid = O=C(O)CCCCCCCCCCCCCCCCC(=O)*; γGlu = O=C(O)[C@H](CCC(=O)[*:2])N[*:1]

Experiments:
[1] = molecular target: T1, human amylin receptor (hAMYR3) (Homo sapiens, UniProt O60896+P30988); test: Human amylin receptor (hAMYR3) in vitro potency assay, CRE-luciferase reporter in BHK cells; type: cell-based; details: BHK hAMYR3/CRE-Luc cells, 3 hours incubation, assay buffer with 1% ovalbumin
T1 construct: host or cells: BHK (Baby Hamster Kidney), Hollex-1 cell line further transfected with RAMP3
In short: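 BHK cells stably expressing human calcitonin receptor (a) plus RAMP3 and a CRE-luciferase reporter, seeded overnight, then exposed to 7-point 7-fold dilutions (often from ~10 nM) in DMEM/HEPES buffer with 1% ovalbumin for 3 h at 37 °C. Luciferase luminescence read after SteadyLite Plus addition.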

[2] = molecular target: T2, human calcitonin receptor (hCTR) (Homo sapiens, UniProt P30988); test: Human calcitonin receptor (hCTR) in vitro potency assay, CRE-luciferase reporter in BHK cells; type: cell-based; details: BHK hCTR/CRE-Luc cells, 3 hours incubation, assay buffer with 1% ovalbumin; read-out: hCalcR potency, EC50
T2 construct: host or cells: BHK (Baby Hamster Kidney), Hollex-1 cell line
T2 sequence (P30988 25-474): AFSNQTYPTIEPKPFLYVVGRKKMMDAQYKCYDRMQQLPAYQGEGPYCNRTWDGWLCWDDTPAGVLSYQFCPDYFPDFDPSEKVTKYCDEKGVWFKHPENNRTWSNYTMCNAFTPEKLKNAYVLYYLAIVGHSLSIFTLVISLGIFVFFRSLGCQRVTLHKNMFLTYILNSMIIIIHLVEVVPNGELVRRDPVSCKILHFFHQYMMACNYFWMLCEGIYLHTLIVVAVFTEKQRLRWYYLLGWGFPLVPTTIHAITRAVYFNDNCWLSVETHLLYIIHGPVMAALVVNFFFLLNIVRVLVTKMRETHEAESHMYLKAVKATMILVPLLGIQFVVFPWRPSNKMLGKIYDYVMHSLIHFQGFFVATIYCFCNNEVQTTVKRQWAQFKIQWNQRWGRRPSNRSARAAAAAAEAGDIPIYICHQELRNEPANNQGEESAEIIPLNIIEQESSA
In short: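 BHK cells stably co-expressing human calcitonin receptor and a CRE-luciferase reporter, seeded the day before, were exposed to 7-fold serial dilutions (7 concentrations, often starting near 10 nM) in DMEM/HEPES/1% ovalbumin buffer for 3 h at 37 °C. Luminescence was then read after SteadyLite Plus addition.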

T1 sequence (O60896 24-148, one chain of several): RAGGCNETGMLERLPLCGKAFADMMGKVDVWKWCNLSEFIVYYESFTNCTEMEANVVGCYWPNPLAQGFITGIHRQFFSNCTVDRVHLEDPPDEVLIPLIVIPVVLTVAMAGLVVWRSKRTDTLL

SMILES	EC50 [1] [pM]	EC50 [2] [pM]
CC[C@H](C)[C@H](NC(=O)[C@H](C)NC(=O)CNC(=O)[C@H](Cc1ccccc1)NC(=O)[C@@H]1CCCN1C(=O)[C@H](CC(=O)O)NC(=O)[C@H](CO)NC(=O)[C@H](CO)NC(=O)[C@H](Cc1c[nH]cn1)NC(=O)[C@H](Cc1c[nH]cn1)NC(=O)[C@H](CC(C)C)NC(=O)[C@H](Cc1ccccc1)NC(=O)[C@H](CCC(=O)O)NC(=O)[C@H](C)NC(=O)[C@H](CC(C)C)NC(=O)[C@H](CCCNC(=N)N)NC(=O)[C@H](C)NC(=O)[C@@H](NC(=O)[C@H](CCC(N)=O)NC(=O)[C@H](C)NC(=O)[C@@H](NC(=O)[C@H](CO)NC(=O)[C@H](CC(C)C)NC(=O)[C@H](Cc1c[nH]cn1)NC(=O)[C@H](CO)NC(=O)[C@H](C)NC(=O)CC[C@H](NC(=O)CCCCCCCCCCCCCCCCC(=O)O)C(=O)O)[C@@H](C)O)[C@@H](C)O)C(=O)N1CCC[C@H]1C(=O)N[C@@H](CO)C(=O)N[C@@H](CO)C(=O)N[C@H](C(=O)N[C@@H](CC(=O)O)C(=O)N[C@H](C(=O)NCC(=O)N1CCC[C@H]1C(=O)N[C@@H](CC(=O)O)C(=O)N[C@H](C(=O)N[C@@H](Cc1ccc(O)cc1)C(N)=O)[C@@H](C)O)C(C)C)[C@@H](C)O [Compound 37, N^1-[(4S)-4-carboxy-4-(17-carboxyheptadecanoylamino)butanoyl]-[Ala1,Ser2,His3,Leu4,Ser5,Ala7,Gln8,Ala10,Glu14,His17,Asp21,Pro22,Pro27,Asp31,Pro34,Asp35]-human amylin] ({C18 diacid-γGlu}-ASHLSTAQTARLAEFLHHSSDPFGAIPSSTDVGPDTY-NH2)	1.68	2.16
CC[C@H](C)[C@H](NC(=O)[C@@H]1CCCN1C(=O)CNC(=O)[C@H](Cc1ccccc1)NC(=O)[C@H](CC(N)=O)NC(=O)[C@H](CC(=O)O)NC(=O)[C@H](CO)NC(=O)[C@H](CO)NC(=O)[C@H](Cc1c[nH]cn1)NC(=O)[C@H](Cc1c[nH]cn1)NC(=O)[C@H](CC(C)C)NC(=O)[C@H](Cc1ccccc1)NC(=O)[C@H](CCC(=O)O)NC(=O)[C@H](C)NC(=O)[C@H](CC(C)C)NC(=O)[C@H](CCCNC(=N)N)NC(=O)[C@H](C)NC(=O)[C@@H](NC(=O)[C@H](CCC(N)=O)NC(=O)[C@H](C)NC(=O)[C@@H](NC(=O)[C@H](CO)NC(=O)[C@H](CC(C)C)NC(=O)[C@H](Cc1c[nH]cn1)NC(=O)[C@H](CO)NC(=O)[C@H](C)NC(=O)CC[C@H](NC(=O)CCCCCCCCCCCCCCCCC(=O)O)C(=O)O)[C@@H](C)O)[C@@H](C)O)C(=O)N[C@@H](CC(C)C)C(=O)N1CCC[C@H]1C(=O)N1CCC[C@H]1C(=O)N[C@H](C(=O)N[C@@H](CC(=O)O)C(=O)N[C@H](C(=O)NCC(=O)N[C@@H](CO)C(=O)N[C@@H](CC(N)=O)C(=O)N[C@H](C(=O)N[C@@H](Cc1ccc(O)cc1)C(N)=O)[C@@H](C)O)C(C)C)[C@@H](C)O [Compound 38, N^1-[(4S)-4-carboxy-4-(17-carboxyheptadecanoylamino)butanoyl]-[Ala1,Ser2,His3,Leu4,Ser5,Ala7,Gln8,Ala10,Glu14,His17,Asp21,Pro25,Pro28,Pro29,Asp31]-human amylin] ({C18 diacid-γGlu}-ASHLSTAQTARLAEFLHHSSDNFGPILPPTDVGSNTY-NH2)	1.97	3.15
CC[C@H](C)[C@H](NC(=O)[C@H](C)NC(=O)CNC(=O)[C@H](Cc1ccccc1)NC(=O)[C@@H]1CCCN1C(=O)[C@H](CC(=O)O)NC(=O)[C@H](CO)NC(=O)[C@H](CO)NC(=O)[C@H](Cc1c[nH]cn1)NC(=O)[C@H](Cc1c[nH]cn1)NC(=O)[C@H](CC(C)C)NC(=O)[C@H](Cc1ccccc1)NC(=O)[C@H](CCC(=O)O)NC(=O)[C@H](C)NC(=O)[C@H](CC(C)C)NC(=O)[C@H](CCCNC(=N)N)NC(=O)[C@H](C)NC(=O)[C@@H](NC(=O)[C@H](CCC(N)=O)NC(=O)[C@H](C)NC(=O)[C@@H](NC(=O)[C@H](CO)NC(=O)[C@H](CC(C)C)NC(=O)[C@H](Cc1c[nH]cn1)NC(=O)[C@H](CO)NC(=O)[C@H](C)NC(=O)CC[C@H](NC(=O)CCCCCCCCCCCCCCCCCCC(=O)O)C(=O)O)[C@@H](C)O)[C@@H](C)O)C(=O)N1CCC[C@H]1C(=O)N[C@@H](CO)C(=O)N[C@@H](CO)C(=O)N[C@H](C(=O)N[C@@H](CC(=O)O)C(=O)N[C@H](C(=O)NCC(=O)N1CCC[C@H]1C(=O)N[C@@H](CC(=O)O)C(=O)N[C@H](C(=O)N1CCC[C@H]1C(N)=O)[C@@H](C)O)C(C)C)[C@@H](C)O [Compound 39, N^1-[(4S)-4-carboxy-4-(19-carboxynonadecanoylamino)butanoyl]-[Ala1,Ser2,His3,Leu4,Ser5,Ala7,Gln8,Ala10,Glu14,His17,Asp21,Pro22,Pro27,Asp31,Pro34,Asp35,Pro37]-human amylin] ({C20 diacid-γGlu}-ASHLSTAQTARLAEFLHHSSDPFGAIPSSTDVGPDTP-NH2)	1.05	1.41
CC[C@H](C)[C@H](NC(=O)[C@H](CCCCNC(=O)CC[C@H](NC(=O)CCCCCCCCCCCCCCCCC(=O)O)C(=O)O)NC(=O)CNC(=O)[C@H](Cc1ccccc1)NC(=O)[C@@H]1CCCN1C(=O)[C@H](CC(=O)O)NC(=O)[C@H](CO)NC(=O)[C@H](CO)NC(=O)[C@H](Cc1c[nH]cn1)NC(=O)[C@H](Cc1c[nH]cn1)NC(=O)[C@H](CC(C)C)NC(=O)[C@H](Cc1ccccc1)NC(=O)[C@H](CCC(=O)O)NC(=O)[C@H](C)NC(=O)[C@H](CC(C)C)NC(=O)[C@H](CCCNC(=N)N)NC(=O)[C@H](C)NC(=O)[C@@H](NC(=O)[C@H](CCC(N)=O)NC(=O)[C@H](C)NC(=O)[C@@H](NC(=O)[C@H](CO)NC(=O)[C@H](CC(C)C)NC(=O)[C@H](Cc1c[nH]cn1)NC(=O)[C@H](CO)NC(=O)[C@H](C)NC(C)=O)[C@@H](C)O)[C@@H](C)O)C(=O)N1CCC[C@H]1C(=O)N[C@@H](CO)C(=O)N[C@@H](CO)C(=O)N[C@H](C(=O)N[C@@H](CC(=O)O)C(=O)N[C@H](C(=O)NCC(=O)N1CCC[C@H]1C(=O)N[C@@H](CC(=O)O)C(=O)N[C@H](C(=O)N1CCC[C@H]1C(N)=O)[C@@H](C)O)C(C)C)[C@@H](C)O [Compound 40, N^1-acetyl,N{Epsilon-25}-[(4S)-4-carboxy-4-(17-carboxyheptadecanoylamino)butanoyl]-[Ala1,Ser2,His3,Leu4,Ser5,Ala7,Gln8,Ala10,Glu14,His17,Asp21,Pro22,Lys25,Pro27,Asp31,Pro34,Asp35,Pro37]-human amylin] (Ac-ASHLSTAQTARLAEFLHHSSDPFGK([γGlu-C18 diacid])IPSSTDVGPDTP-NH2)	1.38	1.29
CC[C@H](C)[C@H](NC(=O)[C@@H]1CCCN1C(=O)CNC(=O)[C@H](Cc1ccccc1)NC(=O)[C@H](Cc1c[nH]cn1)NC(=O)[C@H](Cc1c[nH]cn1)NC(=O)[C@H](CC(C)C)NC(=O)[C@H](Cc1ccccc1)NC(=O)[C@H](CCC(=O)O)NC(=O)[C@H](C)NC(=O)[C@H](CC(C)C)NC(=O)[C@H](CCCNC(=N)N)NC(=O)[C@H](C)NC(=O)[C@@H](NC(=O)[C@H](CCC(N)=O)NC(=O)[C@H](C)NC(=O)[C@@H](NC(=O)[C@H](CO)NC(=O)[C@H](CC(C)C)NC(=O)[C@H](Cc1c[nH]cn1)NC(=O)[C@H](CO)NC(=O)[C@H](C)NC(=O)CC[C@H](NC(=O)CCCCCCCCCCCCCCCCC(=O)O)C(=O)O)[C@@H](C)O)[C@@H](C)O)C(=O)N[C@@H](CC(C)C)C(=O)N1CCC[C@H]1C(=O)N1CCC[C@H]1C(=O)N[C@H](C(=O)N[C@@H](CC(=O)O)C(=O)N[C@H](C(=O)NCC(=O)N[C@@H](CO)C(=O)N[C@@H](CCC(=O)O)C(=O)N[C@H](C(=O)N[C@@H](Cc1ccc(O)cc1)C(N)=O)[C@@H](C)O)C(C)C)[C@@H](C)O [Compound 42, N^1-[(4S)-4-carboxy-4-(17-carboxyheptadecanoylamino)butanoyl]-[Ala1,Ser2,His3,Leu4,Ser5,Ala7,Gln8,Ala10,Glu14,His17,Pro25,Pro28,Pro29,Asp31,Glu35],des-(19-22)-human amylin] ({C18 diacid-γGlu}-ASHLSTAQTARLAEFLHHFGPILPPTDVGSETY-NH2)	2.11	2.78
